Data reported in article PMC4959752, “Pharmacokinetics in Wistar Rats of 5-[(4-Carboxybutanoyl)Amino]-2-Hydroxybenzoic Acid: A Novel Synthetic Derivative of 5-Aminosalicylic Acid (5-ASA) with Possible Anti-Inflammatory Activity” (PLoS ONE, 2016).
“And” between values parts separate entries of the source, which are not always exact repeats. Equal entries are not always repeated. “Also recorded” adds a separate entry of the source. Where two headings read alike, the source gives them in different places.

Assays:
Log P = format: physicochemical; conditions: method not given
Wistar rats = system: Wistar rats; set-up: method as in ref 37 = [37]; 37 OECD Guidelines for the Testing of Chemicals 425: Acute Oral Toxicity—Up-and-Down-Procedure (UDP). 2008.; conditions: acute toxicity; cited from earlier work
[1] = Plasma protein binding assay (ultrafiltration); format: in vitro ADME; conditions: Wistar, rat; for fraction unbound at 4 h, 1 μg/mL / fraction unbound at 4 h, 5 μg/mL / fraction unbound at 4 h, 10 μg/mL / fraction unbound at 4 h, 20 μg/mL: ultrafiltration, 37°C
Method: The resulting samples were incubated for 4 h at 37°C. After incubation, a 100 μL aliquot was removed to analyze the total concentration, and the remaining 500 μL was transferred to a 10 kD cut-off ultrafiltration device (Millipore Corporation, USA), which was centrifuged at 2,000 g for 2 h at 37°C. A 100 μL aliquot of centrifuged plasma was analyzed for the free drug concentration using the RP-HPLC method. The amount of the test compound in the ultrafiltrate was determined by interpolating the main areas of the samples on standard curves containing known amounts of C2. The percentage of protein binding was calculated using the following formula: Protein binding ratio (%) = […].

[2] = Pharmacokinetic study of C2 in Wistar rats (plasma, HPLC, non-compartmental analysis); format: in vivo; conditions: for k el: read-out: Ke (converted); for bioavailability: i.g. 100 mg/kg vs i.v. 50 mg/kg, read-out: F% orally (absolute oral bioavailability)
Source text: Prior to the studies (on the day of C2 administration), the Wistar rats (n = 6) were cannulated. For intravenous (i.v.) treatment, a 24 G catheter was placed in the right lateral tail vein (for blood collection), and another catheter was placed in the left (for C2 administration) lateral tail vein of the rat as follows: the animal was placed inside a trap (special acrylic stocks for rats), the rat tail was exposed, and the distal region of the tail was disinfected with 70% ethanol; the tail veins were then dilated using a heating pad (approximately 45°C). An assistant held the tail of the rat while the left lateral vein was located, and a 24 G catheter was then firmly inserted into the posterior third of the caudal vein of the animal, where it was fixed with adhesive tape (for intragastric and intraperitoneal studies, only one catheter was placed on the right for blood collection).
For the intravenous study, a single dose of 50 mg/kg C2 was administered through the 24 G catheter when the rat was inside the trap. For the intragastric (i.g) pharmacokinetic study, a second group of rats (n = 6) received a single dose of 100 mg/kg using a 20 G gavage needle (animals were provided with a standard diet 4 h after dosing). For the intraperitoneal (i.p.) treatment, a third group of rats (n = 6) was injected with 75 mg/kg C2. In all pharmacokinetic studies, approximately 250 μL of blood was collected in heparinized tubes from each rat via the catheter in the right lateral tail vein prior to dosing and 5, 10, 20, 30, 45, 60, 90, 120, 180, 240, 300, 360, 540, 720 and 1440 min after dosing. These blood samples were supplemented with an equal volume of 0.9% sodium chloride solution. Plasma (100 μL) was harvested by centrifuging the blood samples at 8,000 rpm for 15 min, and the plasma was then immediately processed for analysis.
The samples were prepared as follows: briefly, 450 μL of acetonitrile was added to 100 μL of rat plasma, and the mixture was vortexed for 5 min. Subsequently, 450 μL of methanol was added to the sample, which was then vortexed again and centrifuged to precipitate proteins. Subsequently, 10 μL of the supernatant was introduced into the HPLC system. The plasma concentrations of C2 were determined using an RP-HPLC with UV detection method that had previously been validated for pharmacokinetic studies and the complementary assays performed in this work.
The plasma concentration–time data obtained after the i.v., i.g., and i.p. administration of C2 were subjected to a non-compartmental analysis using statistical moment theory. The pharmacokinetic parameters of C2 were calculated using the Kinetica 5.0 software (Adept Scientific Ltd), including the maximum plasma concentration (Cmax), time to reach Cmax (Tmax), elimination half-life (t1/2), area under the plasma concentration-time curve from time zero to the last measurable concentration (AUC0-t), area under the plasma concentration-time curve from time zero to infinity (AUCtot), mean residence time (MRT), clearance (CL), and apparent volume of distribution (Vd).

[3] = Blood-plasma partitioning (BP ratio); format: in vitro ADME, Wistar rats; conditions: Wistar rat blood, 37°C, 4 h
Method: […] The plasma was separated from blood samples, and the concentration of C2 was determined based on a standard curve prepared with blank plasma using the RP-HPLC method. […] The concentration of C2 in blood cells was assumed to be equal to its unbound concentration in the plasma.

CD1 mice = system: CD1 mice; set-up: method as in ref 37 = [37]; 37 OECD Guidelines for the Testing of Chemicals 425: Acute Oral Toxicity—Up-and-Down-Procedure (UDP). 2008.; conditions: acute toxicity; cited from earlier work
[4] = Tissue distribution study; format: in vivo, Wistar rats
Method: […] The animals were sacrificed 10, 30, 90, 180 and 360 min after dosing (n = 3 per treatment time). The whole brain, heart, liver, spleen, lung, kidney, stomach, small intestine, colon, testicles and muscle were rapidly dissected, harvested and thoroughly rinsed in ice-cold saline to eliminate blood and other content. All tissues and organs were weighed on an analytical balance and immediately processed for analysis. Each tissue sample was homogenized with saline solution at a 1:3 (wt/v) ratio. The preparation process for analysis was the same as that described above for plasma.

[5] = read-out: % Bound fraction of C2 in rat plasma ± SD (converted)
[6] = read-out: % Unbound fraction of C2 in rat plasma ± SD
[7] = pharmacokinetic model (Kinetica 5.0), bi-exponential decline of plasma concentration
[8] = pharmacokinetic model (Kinetica 5.0), calculated
[9] = rat, plasma, ip, single dose (100 mg/kg in abstract, 75 mg/kg in methods), Wistar rats
[10] = rat, plasma, iv, single dose 50 mg/kg, Wistar rats
[11] = rat, plasma, i.g. (oral), single dose 100 mg/kg, Wistar rats

In the case of `O=C(O)CCCC(=O)Nc1ccc(O)c(C(=O)O)c1` [C2, 5-[(4-carboxybutanoyl)amino]-2-hydroxybenzoic acid], the logP (Log P) is given as 1.3, the LD50 (Wistar rats) is given as over 2000 mg/kg and the fraction unbound at 4 h, 1 μg/mL [1, 5] is given as 0.921. For the same molecule, the fraction unbound at 4 h, 1 μg/mL [1, 6] was 0.921 ± 0.023, the fraction unbound at 4 h, 5 μg/mL [1, 5] was 0.925 and the fraction unbound at 4 h, 5 μg/mL [1, 6] was 0.925 ± 0.018. The fraction unbound at 4 h, 10 μg/mL [1, 5] was 0.919, the fraction unbound at 4 h, 10 μg/mL [1, 6] was 0.919 ± 0.007 and the fraction unbound at 4 h, 20 μg/mL [1, 5] was 0.898. It also gave a fraction unbound at 4 h, 20 μg/mL [1, 6] of 0.898 ± 0.008, a fraction unbound at 4 h ([1]; concentrations of 1 to 20 μg/mL, read-out: unbound fraction) of 0.898 to 0.925 and a fraction unbound at 4 h ([1]; summary in discussion, read-out: protein binding (converted)) of 0.9. The “detection in the plasma” value ([2]; 6 h after administration) was “no longer detected”, the half-life ([2]; Wistar, rat, plasma, ip, 75 mg/kg, i.p., single dose (100 mg/kg in abstract, 75 mg/kg in methods), Wistar rats, read-out: t1/2 e) was 38 ± 3 min and the half-life ([2]; Wistar, rat, plasma, iv, 50 mg/kg, i.v., single dose 50 mg/kg, Wistar rats, read-out: t1/2 e (elimination half-life)) was about 33 min. The Tmax ([2]; Wistar, rat, plasma, iv, 50 mg/kg, single dose 50 mg/kg, Wistar rats) was 5 min, the half-life ([2]; Wistar, rat, plasma, pharmacokinetic model (Kinetica 5.0), read-out: elimination half-life α (t1/2α)) was 18 min and the half-life ([2]; Wistar, rat, plasma, pharmacokinetic model (Kinetica 5.0), read-out: elimination half-life β (t1/2β)) was 62 min. For the same molecule, the half-life ([2]; Wistar, rat, plasma, po, 100 mg/kg, i.g. (oral), single dose 100 mg/kg, Wistar rats, read-out: t1/2 e) was about 27 min, the Cmax ([2]; i.g. (oral), single dose 100 mg/kg, Wistar rats, plasma) was 2500 ± 300 ng/mL and the Ka ([2]; i.p., single dose (100 mg/kg in abstract, 75 mg/kg in methods), Wistar rats) was 1.2 ± 0.2 h⁻¹. The “Cp^0” value ([2]; i.v., single dose 50 mg/kg, Wistar rats) was 26900 ± 3700 ng/mL, the α [2, 7] was 0.037 min⁻¹ and the β [2, 7] was 0.011 min⁻¹. It also gave a K12 [2, 8] of 0.008 min⁻¹, a K21 [2, 8] of 0.022 min⁻¹ and an AUC [2, 9] of 12500 ng·h/mL. It also gave an MRT [2, 9] of 69 min, a Cmax ([2]; rat, plasma, ip, single dose (100 mg/kg in abstract, 75 mg/kg in methods), Wistar rats, read-out: Cmax) of 8700 ± 400 ng/mL and a k el [2, 9] of 0.00025 s⁻¹. For the same molecule, the AUC [2, 10] was 20800 ng·h/mL, the MRT [2, 10] was 57 min and the Vd [2, 10] was 2 ± 0.2 L/kg. For the same molecule, the clearance [2, 10] was 13 ± 3 mL/min, the k el [2, 10] was 0.000361 s⁻¹ and the bioavailability ([2]; rat, plasma, oral, Wistar rats) was about 13%. The bioavailability ([2]; rat, plasma, po, Wistar rats) was 13%, the Cmax ([2]; rat, plasma, po, intragastric administration, 100 mg/kg, Wistar rats (abstract), read-out: Cmax) was 2500 ng/mL and the AUC [2, 11] was 2620 ng·h/mL. The MRT [2, 11] was 49 min, the k el [2, 11] was 0.0005 s⁻¹ and the “BP ratio ± SD” value ([3]; 5 μg/mL) was 0.71 and 0.71 ± 0.01. The “BP ratio ± SD” value ([3]; 10 μg/mL) was 0.6 and 0.60 ± 0.03, the LD50 (CD1 mice) was over 2000 mg/kg and the “crossing of blood-brain barrier / hemato-testicular barrier (presence in brain and testicles)” value ([4]; Wistar rats, i.g. and i.p.) was “effectively crossed the blood-brain barrier and hemato-testicular barrier; also recorded: able to cross the blood brain barrier”. The tissue distribution ([4]; i.g. and i.p. routes, before the 2 h time point) was “widely distributed in all examined tissues” and the tissue distribution ([4]; single intragastric or oral dose (100 mg/kg), Wistar rats, 100 mg/kg) was “distributed and detected in all examined tissues (including the brain and colon); also recorded: well distributed in all tissues”.
